Laboratory results: ChEMBL document CHEMBL1201862, “PubChem BioAssay data set” (2004)
The source made the active and inactive calls.

Columns and labels:
[1] = target: ADP-ribosylation factor GTPase-activating protein 1 (Rattus norvegicus, UniProt Q62848); assay: Fluorescence polarization-based biochemical high throughput dose response screening assay to identify inhibitors of ADP-ribosylation factor GTPase activating protein 1 (ARFGAP1).; format: functional
[2] = target: Botulinum neurotoxin type F (Clostridium botulinum, UniProt P30996); assay: High-throughput multiplex microsphere dose response for inhibitors of toxin protease, specifically Botulinum neurotoxin light chain F protease, compounds from Cherry Pick 02.; format: functional; conditions: read-out: EC50_MICROM
Cryptococcus neoformans = assay: PubChem AID 686997; format: functional, organism-based
[3] = target: DNA repair protein RAD52 homolog (Homo sapiens, UniProt P43351); format: functional, biochemical
DNA repair protein RAD52 homolog, sequence (P43351 whole entry): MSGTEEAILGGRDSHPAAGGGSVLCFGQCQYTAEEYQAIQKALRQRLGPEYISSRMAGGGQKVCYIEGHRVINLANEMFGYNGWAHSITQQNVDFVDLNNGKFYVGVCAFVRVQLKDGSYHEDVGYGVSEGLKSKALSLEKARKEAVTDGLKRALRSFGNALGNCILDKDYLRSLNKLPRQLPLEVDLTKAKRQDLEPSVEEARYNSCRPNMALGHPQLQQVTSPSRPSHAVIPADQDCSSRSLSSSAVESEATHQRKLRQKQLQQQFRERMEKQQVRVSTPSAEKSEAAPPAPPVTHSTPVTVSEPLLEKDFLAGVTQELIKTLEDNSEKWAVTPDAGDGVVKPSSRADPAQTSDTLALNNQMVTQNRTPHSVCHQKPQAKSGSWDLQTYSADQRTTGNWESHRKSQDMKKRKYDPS

[4] = target: DNA repair and recombination protein RAD54-like (Homo sapiens, UniProt Q92698); assay: inhibitors of human RAD54 branch migration, confirmation, biochemical, fluorescence, cherry-picked samples, dose series (AID 651657); format: functional
DNA repair and recombination protein RAD54-like, sequence (Q92698 whole entry): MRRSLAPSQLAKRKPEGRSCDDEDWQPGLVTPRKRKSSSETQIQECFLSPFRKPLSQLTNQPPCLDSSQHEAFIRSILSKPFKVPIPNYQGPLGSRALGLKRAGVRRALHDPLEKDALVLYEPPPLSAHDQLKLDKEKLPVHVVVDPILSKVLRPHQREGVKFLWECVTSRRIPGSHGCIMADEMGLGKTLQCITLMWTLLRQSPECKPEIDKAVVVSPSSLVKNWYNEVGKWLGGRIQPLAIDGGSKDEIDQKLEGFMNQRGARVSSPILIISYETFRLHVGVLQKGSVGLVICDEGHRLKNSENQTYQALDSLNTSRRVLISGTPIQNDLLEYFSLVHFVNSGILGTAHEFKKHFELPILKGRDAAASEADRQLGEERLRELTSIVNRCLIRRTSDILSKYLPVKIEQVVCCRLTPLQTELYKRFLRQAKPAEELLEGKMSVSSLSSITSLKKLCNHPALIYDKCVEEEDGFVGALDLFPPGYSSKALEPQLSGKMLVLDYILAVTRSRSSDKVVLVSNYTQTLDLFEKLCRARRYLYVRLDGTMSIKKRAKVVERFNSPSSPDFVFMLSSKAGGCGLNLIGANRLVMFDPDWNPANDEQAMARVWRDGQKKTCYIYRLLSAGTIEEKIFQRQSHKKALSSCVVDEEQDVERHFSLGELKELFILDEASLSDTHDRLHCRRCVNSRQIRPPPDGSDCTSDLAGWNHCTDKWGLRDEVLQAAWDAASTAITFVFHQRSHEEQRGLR

[5] = growth suppression of beta-catenin-knockout colon cells, dose response, cell-based, HCT116, human colon tumor (AID 1045); format: functional;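 also: HCT116 colon tumor cells with beta catenin knocked out; cells exposed to compound for 60 hours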
[6] = growth suppression of PTEN-null colon cells, dose response, cell-based, HCT116 PTEN knockout (AID 1047); format: functional;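 also: HCT116 colon tumor cells with PTEN knocked out; cells exposed to compound for 60 hours before readout; potency for loss of cell viability measured by luminescence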
Cytochrome P450 3A4 = Cytochrome P450 3A4 (Homo sapiens, UniProt P08684);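 also: CYP3A4 tested as one member of a cytochrome P450 panel screen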
Cytochrome P450 3A4, sequence (P08684 whole entry): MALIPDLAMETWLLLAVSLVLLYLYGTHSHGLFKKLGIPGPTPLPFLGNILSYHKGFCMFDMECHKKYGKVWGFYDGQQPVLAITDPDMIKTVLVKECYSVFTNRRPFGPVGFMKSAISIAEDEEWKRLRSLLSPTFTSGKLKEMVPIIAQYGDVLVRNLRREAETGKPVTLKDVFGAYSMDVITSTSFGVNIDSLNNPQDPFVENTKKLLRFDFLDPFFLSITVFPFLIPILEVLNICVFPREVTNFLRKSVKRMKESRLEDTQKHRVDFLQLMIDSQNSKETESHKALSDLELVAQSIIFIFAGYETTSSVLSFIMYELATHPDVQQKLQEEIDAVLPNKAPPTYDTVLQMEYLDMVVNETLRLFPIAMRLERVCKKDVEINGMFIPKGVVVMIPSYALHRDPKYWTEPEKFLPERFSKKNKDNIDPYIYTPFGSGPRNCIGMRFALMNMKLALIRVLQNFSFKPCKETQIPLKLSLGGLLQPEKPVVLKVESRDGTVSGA

[7] = intracellular Trypanosoma cruzi inhibitors in host cells – cell-based, plate reader, cherry-pick samples, set 3, dose response (AID 651818); format: functional;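 also: compounds incubated with infected cells for about four days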
[8] = Inhibition of T. cruzi Tulahuen strain amastigotes in L-6 muscle cells Measured in Cell-Based and Microorganism Combination System Using Plate Reader - 2138-03_Inhibitor_Dose_CherryPick_Activity.; format: functional; conditions: Rattus norvegicus, L6
[9] = cytotoxicity in L-6 rat myocytes, dose response, cytotoxicity control, cell-based, plate reader, cherry-pick (AID 651896); format: functional
[10] = T. b. rhodesiense proliferation inhibition, dose response, STIB900 strain, plate reader, cherry pick (AID 651893); format: functional, cell-based; conditions: Trypanosoma brucei
[11] = Inhibition of Plasmodium falciparum NF54 Measured in Cell-Based System Using Plate Reader - 2138-11_Inhibitor_Dose_CherryPick_Activity.; format: functional
[12] = L. donovani amastigote growth inhibition, dose response, axenic amastigotes, plate reader, cherry pick (AID 651891); format: functional, cell-based; conditions: Leishmania donovani
[13] = T. cruzi intracellular amastigote growth inhibition, dose response, imaging, CA-I/72 strain, bovine embryo skeletal muscle, dry powder (AID 651885); format: functional, cell-based
[14] = target: T1, Low molecular weight phosphotyrosine protein phosphatase (Homo sapiens, UniProt P24666); format: functional; conditions: read-out: IC50_Mean
T1 sequence (P24666 whole entry): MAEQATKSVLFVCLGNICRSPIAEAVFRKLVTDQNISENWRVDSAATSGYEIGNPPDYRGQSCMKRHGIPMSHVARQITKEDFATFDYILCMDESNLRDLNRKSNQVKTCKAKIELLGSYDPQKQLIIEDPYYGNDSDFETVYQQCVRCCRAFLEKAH

[15] = target: T1, Low molecular weight phosphotyrosine protein phosphatase; format: functional; conditions: read-out: IC50_Mean; remark: listed apart in the source
[16] = target: T2, Tyrosine-protein phosphatase non-receptor type 22 (Homo sapiens, UniProt Q9Y2R2); assay: LYP phosphatase inhibition for selectivity, dose response, selectivity assay for LMPTP inhibitor project, biochemical, fluorescence, LYP catalytic domain (AID 652006); format: functional; conditions: read-out: IC50_Mean
T2 sequence (Q9Y2R2 whole entry): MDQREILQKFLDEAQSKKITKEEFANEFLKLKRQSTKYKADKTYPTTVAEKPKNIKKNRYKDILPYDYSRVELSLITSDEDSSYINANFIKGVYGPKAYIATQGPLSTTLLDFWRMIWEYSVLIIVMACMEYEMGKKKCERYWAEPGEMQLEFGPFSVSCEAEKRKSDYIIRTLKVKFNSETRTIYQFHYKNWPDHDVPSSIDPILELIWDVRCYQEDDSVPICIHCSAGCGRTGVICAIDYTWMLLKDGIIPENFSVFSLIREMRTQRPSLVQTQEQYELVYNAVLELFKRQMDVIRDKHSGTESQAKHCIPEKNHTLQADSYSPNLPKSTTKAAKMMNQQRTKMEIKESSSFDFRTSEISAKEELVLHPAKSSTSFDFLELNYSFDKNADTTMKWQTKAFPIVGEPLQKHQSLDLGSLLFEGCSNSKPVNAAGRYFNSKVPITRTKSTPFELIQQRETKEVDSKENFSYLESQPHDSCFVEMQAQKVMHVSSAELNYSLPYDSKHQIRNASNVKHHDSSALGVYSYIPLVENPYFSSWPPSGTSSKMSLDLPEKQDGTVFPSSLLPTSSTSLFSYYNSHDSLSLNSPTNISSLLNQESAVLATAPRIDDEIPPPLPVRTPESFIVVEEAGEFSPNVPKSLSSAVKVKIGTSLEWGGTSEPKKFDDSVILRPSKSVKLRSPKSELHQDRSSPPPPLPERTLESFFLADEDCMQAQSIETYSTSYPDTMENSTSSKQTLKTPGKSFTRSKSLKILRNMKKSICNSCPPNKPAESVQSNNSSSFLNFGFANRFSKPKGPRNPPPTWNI

[17] = target: T3, Carboxy-terminal domain RNA polymerase II polypeptide A small phosphatase 1 (Homo sapiens, UniProt Q9GZU7); assay: inhibitors of CTDSP1, concentration-response testing, biochemical assay, absorbance-based, actives from ultra-high-throughput screening (AID 540297); format: functional
T3 sequence (Q9GZU7 whole entry): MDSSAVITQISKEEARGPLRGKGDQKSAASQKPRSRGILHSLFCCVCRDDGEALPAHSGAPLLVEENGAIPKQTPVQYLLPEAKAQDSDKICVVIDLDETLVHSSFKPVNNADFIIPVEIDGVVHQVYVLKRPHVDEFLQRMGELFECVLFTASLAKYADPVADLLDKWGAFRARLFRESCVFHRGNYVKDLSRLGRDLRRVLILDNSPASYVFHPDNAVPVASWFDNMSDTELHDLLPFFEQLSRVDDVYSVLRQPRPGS

Interleukin-8 [18] = target: T4, Interleukin-8 (Homo sapiens, UniProt P10145); assay: Dose Response confirmation of uHTS small molecule hits for cystic fibrosis induced NFkb Inhibitors in a TNFa-induced IL8 counterscreen.; format: functional; conditions: read-out: IC50_Mean
T4 sequence (P10145 whole entry): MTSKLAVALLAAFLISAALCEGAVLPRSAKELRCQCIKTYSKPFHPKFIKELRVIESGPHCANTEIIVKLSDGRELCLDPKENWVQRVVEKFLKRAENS

HEK293 = assay: inhibitors of LMP1-driven NF-kB reporter, dose response, cell-based, HEK293, luciferase, cherry-pick (AID 588343); format: functional, Homo sapiens; conditions: Homo sapiens, HEK293
Interleukin-8 [19] = target: T4, Interleukin-8; assay: Dose Response confirmation of uHTS small molecule hits for cystic fibrosis induced NFkb Inhibitors in a PAF-induced IL8 counterscreen.; format: functional; conditions: read-out: IC50_Mean
[20] = inhibitors of TNFa-stimulated NF-kB luciferase reporter, dose response, selectivity assay for EBV LMP1 NF-kB inhibitor project, HEK293 LMP1 reporter cells, dry powder, set 2 (AID 624369); format: functional
[21] = LMP1-driven NF-kB reporter inhibition, dose response, cell-based, luciferase reporter, luminescence, dry powder, set 2 (AID 624376); format: functional
[22] = target: Arf-GAP with SH3 domain, ANK repeat and PH domain-containing protein 1 (Homo sapiens, UniProt Q9ULH1); format: functional;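 also: biochemical fluorescence polarization dose–response screen measuring inhibition of ASAP1; ASAP1 GAP domain stimulating GTP hydrolysis by truncated human ARF1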
[23] = target: ATP-dependent translocase ABCB1 (Homo sapiens, UniProt P08183); assay: ABCB1 efflux pump inhibitor potency, dose response, Jurkat-DNR cells, JC-1, flow cytometry (AID 1689); format: functional
ATP-dependent translocase ABCB1, sequence (P08183 whole entry): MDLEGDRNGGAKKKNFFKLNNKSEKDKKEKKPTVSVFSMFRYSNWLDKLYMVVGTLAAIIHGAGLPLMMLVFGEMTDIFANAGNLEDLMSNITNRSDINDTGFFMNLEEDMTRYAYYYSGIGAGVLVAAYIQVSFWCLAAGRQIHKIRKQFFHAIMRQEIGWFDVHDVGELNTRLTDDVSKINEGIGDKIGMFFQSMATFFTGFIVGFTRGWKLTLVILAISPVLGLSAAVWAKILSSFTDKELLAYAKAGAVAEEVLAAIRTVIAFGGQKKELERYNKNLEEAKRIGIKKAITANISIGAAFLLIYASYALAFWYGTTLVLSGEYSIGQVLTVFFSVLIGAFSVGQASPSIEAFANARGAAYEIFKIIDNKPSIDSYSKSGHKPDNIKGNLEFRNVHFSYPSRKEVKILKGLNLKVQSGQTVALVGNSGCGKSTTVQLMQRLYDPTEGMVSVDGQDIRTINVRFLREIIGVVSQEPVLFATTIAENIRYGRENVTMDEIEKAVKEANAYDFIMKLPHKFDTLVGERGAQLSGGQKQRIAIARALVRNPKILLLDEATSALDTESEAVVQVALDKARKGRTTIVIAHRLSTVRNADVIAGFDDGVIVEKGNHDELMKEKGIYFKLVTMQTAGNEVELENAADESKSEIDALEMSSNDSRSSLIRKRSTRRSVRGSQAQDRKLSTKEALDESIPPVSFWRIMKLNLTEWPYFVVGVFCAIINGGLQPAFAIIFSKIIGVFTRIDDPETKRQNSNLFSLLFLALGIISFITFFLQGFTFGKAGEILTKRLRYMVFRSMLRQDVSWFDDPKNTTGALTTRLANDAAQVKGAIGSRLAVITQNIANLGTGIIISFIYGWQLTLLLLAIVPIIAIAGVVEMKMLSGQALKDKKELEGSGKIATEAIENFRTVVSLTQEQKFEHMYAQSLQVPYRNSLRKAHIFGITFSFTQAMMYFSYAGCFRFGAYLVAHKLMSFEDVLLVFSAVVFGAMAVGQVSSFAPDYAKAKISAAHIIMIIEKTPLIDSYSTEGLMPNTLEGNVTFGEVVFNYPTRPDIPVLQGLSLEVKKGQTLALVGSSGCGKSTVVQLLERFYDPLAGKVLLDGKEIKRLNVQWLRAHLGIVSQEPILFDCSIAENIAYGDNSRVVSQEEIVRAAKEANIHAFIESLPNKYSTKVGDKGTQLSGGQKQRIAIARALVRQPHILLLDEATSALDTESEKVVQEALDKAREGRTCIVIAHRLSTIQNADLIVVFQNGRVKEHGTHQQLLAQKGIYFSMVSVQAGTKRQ

[24] = target: Broad substrate specificity ATP-binding cassette transporter ABCG2 (Homo sapiens, UniProt Q9UNQ0); assay: ABCG2 efflux pump inhibitors, dose response, Ig-MXP3 cells, flow cytometry (AID 1690); format: functional
Beta-lactamase [25] = target: T5, Beta-lactamase (Pseudomonas aeruginosa, UniProt Q79MP6); assay: […] counterscreen for selective VIM-2 inhibitors: dose response biochemical high throughput screening assay to identify inhibitors of IMP-1 metallo-beta-lactamase.
T5 sequence (Q79MP6 whole entry): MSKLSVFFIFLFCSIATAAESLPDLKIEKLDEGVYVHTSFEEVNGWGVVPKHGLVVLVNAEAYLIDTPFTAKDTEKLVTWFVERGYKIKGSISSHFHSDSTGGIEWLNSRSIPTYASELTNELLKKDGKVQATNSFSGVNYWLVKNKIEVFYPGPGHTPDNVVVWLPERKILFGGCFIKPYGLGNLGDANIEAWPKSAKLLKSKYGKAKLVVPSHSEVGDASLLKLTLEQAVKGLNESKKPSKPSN

Beta-lactamase [26] = target: Beta-lactamase (Salmonella choleraesuis (strain SC-B67), UniProt Q5J463); assay: Epi-absorbance-based counterscreen for selective VIM-2 inhibitors: dose response biochemical high throughput screening assay to identify inhibitors of TEM-1 serine-beta-lactamase.
Beta-lactamase [27] = target: T5, Beta-lactamase; assay: IMP-1 metallo-beta-lactamase inhibitors, dose response, selectivity assay for VIM-2 inhibitor project, biochemical, epi-absorbance (AID 1920)
[28] = HEK293T cell cytotoxicity, dose response, cytotoxicity control, CellTiter-Glo luminescence, cherry-picked samples, set 4 (AID 743441); format: functional, cell-based; conditions: HEK293
[29] = target: Tyrosine-protein phosphatase non-receptor type 5 (Homo sapiens, UniProt P54829); assay: STEP phosphatase inhibitors, confirmation, biochemical, fluorescence intensity, uHTS hits (AID 602372); format: functional; conditions: read-out: IC50_Mean
Tyrosine-protein phosphatase non-receptor type 5, sequence (P54829 whole entry): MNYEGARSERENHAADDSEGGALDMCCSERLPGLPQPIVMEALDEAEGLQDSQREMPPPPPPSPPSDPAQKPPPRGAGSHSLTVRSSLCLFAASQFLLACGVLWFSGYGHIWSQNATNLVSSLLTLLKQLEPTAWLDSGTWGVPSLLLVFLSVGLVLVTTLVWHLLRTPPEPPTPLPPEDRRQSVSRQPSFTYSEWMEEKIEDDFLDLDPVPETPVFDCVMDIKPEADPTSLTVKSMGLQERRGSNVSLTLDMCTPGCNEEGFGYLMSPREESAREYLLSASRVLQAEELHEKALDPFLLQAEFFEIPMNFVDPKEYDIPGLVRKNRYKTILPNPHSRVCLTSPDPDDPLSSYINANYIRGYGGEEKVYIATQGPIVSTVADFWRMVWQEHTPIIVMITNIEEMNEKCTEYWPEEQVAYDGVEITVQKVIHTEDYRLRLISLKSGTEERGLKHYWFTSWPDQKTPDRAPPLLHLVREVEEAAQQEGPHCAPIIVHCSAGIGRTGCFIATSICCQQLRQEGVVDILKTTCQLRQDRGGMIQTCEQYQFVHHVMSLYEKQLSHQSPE

[30] = target: Tyrosine-protein phosphatase non-receptor type 11 (Homo sapiens, UniProt Q06124); assay: SHP2 phosphatase inhibition, dose response, selectivity assay for STEP inhibitor project, biochemical (AID 602367); format: functional; conditions: read-out: IC50_Mean
[31] = target: Dual specificity protein phosphatase 3 (Homo sapiens, UniProt P51452); assay: VHR phosphatase inhibition, dose response, selectivity assay for STEP inhibitor project, biochemical (AID 602374); format: functional; conditions: read-out: IC50_Mean
Nonstructural protein 1 = Nonstructural protein 1 (Influenza A virus, UniProt Q194T2); format: functional, Influenza A virus (A/California/07/2009(H1N1))
Nonstructural protein 1, sequence (Q194T2 whole entry): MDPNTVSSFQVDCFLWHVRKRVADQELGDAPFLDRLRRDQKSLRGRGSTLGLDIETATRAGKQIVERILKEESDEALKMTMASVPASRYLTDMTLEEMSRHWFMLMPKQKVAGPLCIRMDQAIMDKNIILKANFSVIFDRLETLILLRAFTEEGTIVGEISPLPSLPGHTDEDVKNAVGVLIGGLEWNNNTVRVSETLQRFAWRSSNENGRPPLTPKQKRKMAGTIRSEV

[32] = target: Matrix metalloproteinase-14 (Homo sapiens, UniProt P50281); assay: Dose Response confirmation of uHTS hits for a small molecule inhibitors of MT1-MMP activation in a fluorescence assay set 1.; format: functional
[33] = target: Platelet-activating factor acetylhydrolase (Mus musculus, UniProt Q60963); assay: Late stage assay provider results from the probe development effort to identify inhibitors of pPAFAH: fluorescence-based dose-response biochemical gel-based competitive Activity-Based Protein Profiling (ABPP) assay for SAR compounds.; format: functional
Platelet-activating factor acetylhydrolase, sequence (Q60963 whole entry): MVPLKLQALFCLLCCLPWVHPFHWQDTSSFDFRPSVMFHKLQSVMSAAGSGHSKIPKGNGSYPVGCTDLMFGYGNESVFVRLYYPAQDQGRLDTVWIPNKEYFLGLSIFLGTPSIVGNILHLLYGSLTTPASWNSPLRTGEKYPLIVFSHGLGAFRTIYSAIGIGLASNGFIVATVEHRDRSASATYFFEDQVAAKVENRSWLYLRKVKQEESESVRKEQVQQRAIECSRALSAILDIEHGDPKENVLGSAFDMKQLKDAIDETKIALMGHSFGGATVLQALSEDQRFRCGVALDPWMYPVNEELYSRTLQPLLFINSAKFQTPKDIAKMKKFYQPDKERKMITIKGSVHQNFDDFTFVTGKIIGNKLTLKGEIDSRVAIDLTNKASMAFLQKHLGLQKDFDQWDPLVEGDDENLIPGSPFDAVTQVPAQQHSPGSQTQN

[34] = HEK293 cell cytotoxicity, dose response, cytotoxicity control, ATP luminescence, dry powder, Set6 (AID 743142); format: functional, cell-based

ADP-ribosylation factor GTPase-activating protein 1, sequence (Q62848 whole entry): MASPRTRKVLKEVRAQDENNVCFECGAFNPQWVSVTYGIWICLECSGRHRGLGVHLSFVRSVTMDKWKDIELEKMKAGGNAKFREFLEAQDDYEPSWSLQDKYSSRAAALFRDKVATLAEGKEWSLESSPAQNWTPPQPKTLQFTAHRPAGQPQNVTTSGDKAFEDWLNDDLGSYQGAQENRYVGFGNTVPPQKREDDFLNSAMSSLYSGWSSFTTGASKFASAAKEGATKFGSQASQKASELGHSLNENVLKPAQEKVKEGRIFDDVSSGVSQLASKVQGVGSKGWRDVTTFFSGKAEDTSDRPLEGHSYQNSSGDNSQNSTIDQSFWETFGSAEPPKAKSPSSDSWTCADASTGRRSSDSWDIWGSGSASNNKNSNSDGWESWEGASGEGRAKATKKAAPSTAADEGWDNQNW

SMILES: COc1ccc(-n2c(=O)c3c4c(sc3n3cnnc23)CC(C)CC4)cc1 (centres undefined)
- IC50 [1]: 23.1 µM (inactive)

SMILES: COc1ccc(C(CNC(=O)c2ccc(OC)c(S(=O)(=O)N3CCCC3)c2)N2CCCC2)cc1 (centres undefined)
- EC50 [2]: > 20 µM (inactive)

SMILES: Cc1cc(Cl)ccc1N=C(S)NCc1ccc(F)cc1
- AC50 (Cryptococcus neoformans): > 70 µM (inactive)

SMILES: Cc1cc(N2CCNC[C@@H]2C)ccc1N1CC[C@@H](O)C1
- AC50 [3]: 4.37 µM (active)

SMILES: CCOc1ccc2nc(C)cc(Nc3ccc4c(c3)OCCO4)c2c1
- AC50 [4]: 25 µM (active)
- EC50 [5]: 11.3 µM (active)
- EC50 [6]: 14.7 µM (active)
- AC50 (Cytochrome P450 3A4): 25.1 µM (inconclusive)

SMILES: C[C@H]1CN([C@@H](C)CO)C(=O)c2cccc(NC(=O)c3ccncc3)c2O[C@@H]1CN(C)Cc1ccc(-c2ccccc2)cc1
- AC50 [7]: 0.075 µM (active)
- IC50 [8]: 1.14 µM (active)
- IC50 [9]: 17.5 µM (active)
- IC50 [10]: 6.41 µM (inactive)
- IC50 [11]: 1.14 µM (active)
- IC50 [12]: 6.47 µM (inactive)
- IC50 [13]: 10 µM (inconclusive)

SMILES: Cc1cc2oc(=O)cc(-c3cc4ccccc4o3)c2cc1O
- IC50 [14]: 20.7 µM (inactive)
- IC50 [15]: 21.5 µM (inactive)
- IC50 [16]: 29.1 µM (inactive)
- IC50 [17]: 3.8 µM (active)

SMILES: COc1ccccc1[C@]1(C)ON(c2ccccc2C(F)(F)F)C1=O
- IC50 (Interleukin-8 [18]): 24.3 µM (active)
- AC50 (HEK293): 7.34 µM (active)
- IC50 (Interleukin-8 [19]): 8 µM (active)

SMILES: C/C=C/c1cccc(-c2nc(C(=O)Nc3nccs3)cc3c2[C@@H](CCO)N(C(=O)NC(C)C)C3)c1
- AbsAC35 [20]: 58.58 µM
- AbsAC35 [21]: 118.9 µM

SMILES: CC(=O)c1cccc(NC(=O)CSc2ccc(-c3ccc4c(c3)OCO4)nn2)c1
- IC50 [22]: 33.9 µM (inactive)

SMILES: CCOC(=O)c1cccc(NC(=O)c2cnc3ccccc3n2)c1
- EC50 [23]: 30.7 µM (inactive)
- EC50 [24]: 11.8 µM (active)

SMILES: S=c1[nH]nc(-c2cccs2)n1Cc1ccccc1
- IC50 (Beta-lactamase [25]): > 59.6 µM (inactive)
- IC50 (Beta-lactamase [26]): > 59.6 µM (inactive)
- IC50 (Beta-lactamase [27]): > 59.6 µM (inactive)

SMILES: Cc1cc(C)c(OCCNC(=O)c2ccccc2Sc2ccccc2C#N)c(C)c1
- AC50 [28]: > 52 µM (inactive)

SMILES: NS(=O)(=O)c1ccccc1
- IC50 [29]: 28.6 µM (inactive)
- IC50 [30]: 8.42 µM (active)
- IC50 [31]: 1.5 µM (active)

SMILES: CCCN1C(=O)/C(=C2/C=Cc3ccccc3N2CC)SC1=S
- IC50 (Nonstructural protein 1): 5.77 µM (active)
- IC50 [32]: 29.7 µM (inactive)

SMILES: Cc1cc(N2CCN(C(=O)Oc3ccc([N+](=O)[O-])cc3)CC2)c2ccccc2n1
- IC50 [33]: 0.179 µM (active)
- IC50 [14]: 25.4 µM (inactive)

SMILES: O=C(Cc1ccc(Cl)cc1)NCCC(=O)N[C@@H]1CCCc2ccccc21
- AC50 [34]: 5.41 µM (active)
